Source: publication PMC2952696 (Bioorganic & medicinal chemistry letters, 2010)

Key:
Format in all cases: biochemical
rat nNOS = rat nNOS (Rattus norvegicus, UniProt P29476); test: NOS inhibition assay, rat nNOS; conditions: for selectivity n/e: rat nNOS over bovine eNOS; for selectivity n/i: rat nNOS over murine iNOS
bovine eNOS = bovine eNOS (Bos taurus, UniProt P29473); test: NOS inhibition assay, bovine eNOS; conditions: 2a vs 1
human nNOS = human nNOS (Homo sapiens, UniProt P29475); test: NOS inhibition assay, human nNOS; conditions: human nNOS vs rat nNOS

Row | SMILES | drop of selectivity for rat nNOS over bovine eNOS compared to 1 (rat nNOS; 2a vs 1) [fold] | impaired potency for rat nNOS compared to 1 (rat nNOS; 2a vs 1, removal of 4-methyl group) [fold] | selectivity n/e (rat nNOS) | selectivity n/i (rat nNOS) | difference in eNOS potency compared to 1 (bovine eNOS) [fold] | drop of selectivity (Ki-human/Ki-rat) compared to 1 (human nNOS) [fold] | lower potency for rat nNOS compared to 2a (rat nNOS; 2b vs 2a) [fold]
1 | Nc1cccc(C[C@@H]2CNC[C@@H]2OCCNCCc2cccc(F)c2)n1 [Compound 2a] | 2.3 | 7 | 1,200 | 200 | 3 | 1.2 | –
2 | N=C1CCCC(C[C@@H]2CNC[C@@H]2OCCNCCc2cccc(F)c2)N1 (stereo partly drawn) [Compound 3] | – | – | 530 | 200 | – | 1.6 | –
3 | Nc1cccc(C[C@H]2CNC[C@H]2OCCNCCc2cccc(F)c2)n1 [Compound 2b] | – | – | 270 | 60 | – | – | 4
